Measurements reported in article PMC8807399, “Synthesis, Characterization, and in vivo Evaluation of a Novel Potent Autotaxin-Inhibitor” (Frontiers in Pharmacology, 2022).
Converted amounts (≈) assume the structure as drawn.

Tests used:
[1] = molecular target: T1, MMP-1 (Homo sapiens, UniProt P03956); experiment: Off-target screen MMP-1; assay type: biochemical; settings: 10 µM; single point, duplicates
T1 construct: purchased Eurofins CEREP SA

[2] = molecular target: T2, PPARγ (Homo sapiens, UniProt P37231); experiment: Off-target screen PPARγ, agonist mode; assay type: cell-based; settings: 10 µM, single point, duplicates
T2 construct: purchased Eurofins CEREP SA
T2 sequence (P37231 whole entry): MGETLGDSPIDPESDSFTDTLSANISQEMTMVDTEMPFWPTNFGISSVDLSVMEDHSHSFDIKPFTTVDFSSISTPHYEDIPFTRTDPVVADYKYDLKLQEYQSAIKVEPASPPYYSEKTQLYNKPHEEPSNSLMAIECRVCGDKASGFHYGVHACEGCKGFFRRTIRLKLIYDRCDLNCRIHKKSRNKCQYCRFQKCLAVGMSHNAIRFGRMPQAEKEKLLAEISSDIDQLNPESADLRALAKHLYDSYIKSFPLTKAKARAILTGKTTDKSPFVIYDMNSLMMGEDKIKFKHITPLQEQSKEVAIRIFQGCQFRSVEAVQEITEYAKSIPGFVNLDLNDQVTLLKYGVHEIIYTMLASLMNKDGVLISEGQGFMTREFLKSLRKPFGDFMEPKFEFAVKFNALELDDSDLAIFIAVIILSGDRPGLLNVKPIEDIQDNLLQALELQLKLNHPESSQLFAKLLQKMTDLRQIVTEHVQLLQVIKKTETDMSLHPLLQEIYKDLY

[3] = Glutathione addition screening; assay type: in vitro ADME; settings: human liver microsomes + NADPH + GSH
Procedure: All sample handling was performed based on a 96-well plate format using an automated pipetting system. The test compounds, positive controls (diclofenac, troglitazone, nefazodone, 4-[[1-(4-fluorophenyl)-2-methyl-1H-imidazol-4-yl]ethynyl]-2-methylpyridine) and solvent control (DMSO) were incubated with human liver microsomes supplemented with NADPH and reduced GSH. Stable GSH conjugates whose production can be assumed to be the result of chemically reactive metabolites were detected using a quadrupole time of flight mass spectrometer run in untargeted full scan accurate mass MSE mode (Waters Xevo G1 QTOFMSE; Waters GmbH, Eschborn, Germany). This generic GSH adduct detection method and the assay workflow are taking advantage of the specific fragmentation behavior of the peptide moiety upon collision induced dissociation of GSH adducts and so are largely independent of the conjugate (“X”) itself.

[4] = HT-solubility assay; assay type: physicochemical; settings: aqueous buffer, thermodynamic from solid; phosphate buffer pH 6.5
Procedure: This assay was performed on a TECAN station starting from 10 mM DMSO stock solutions of the test compounds. Two aliquots of the test compound were dried and dissolved in phosphate buffer at pH 6.5. Sonication supports optimal re-solubilization. The solutions were then filtered and diluted (3 different dilution levels for each compound) followed by quantification of the dissolved material with Rapid-Fire MS. Quantification was performed for each test compound with a 6-point calibration curve prepared with the same DMSO starting solution.

[5] = molecular target: T3, S1P2 (Homo sapiens, UniProt O95136); experiment: Off-target screen S1P2, antagonist mode; assay type: cell-based; settings: 10 µM, single point, duplicates
T3 construct: purchased Eurofins CEREP SA
T3 sequence (O95136 whole entry): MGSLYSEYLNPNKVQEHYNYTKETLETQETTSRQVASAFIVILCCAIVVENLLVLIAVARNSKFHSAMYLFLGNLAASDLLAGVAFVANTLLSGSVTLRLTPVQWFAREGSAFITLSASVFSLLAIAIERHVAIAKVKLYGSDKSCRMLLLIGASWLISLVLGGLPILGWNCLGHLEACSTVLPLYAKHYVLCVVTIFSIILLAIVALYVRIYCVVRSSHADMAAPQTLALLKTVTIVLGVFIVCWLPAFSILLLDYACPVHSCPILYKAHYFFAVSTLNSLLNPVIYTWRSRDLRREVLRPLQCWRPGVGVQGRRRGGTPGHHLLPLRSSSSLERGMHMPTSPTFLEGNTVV

[6] = system: EAG model rats; experiment: Experimental autoimmune glaucoma (EAG) model; assay type: in vivo, rat; settings: ONA + ATX-i group; for IOP: 20 mg/kg food admix
Procedure: Calculations of the daily doses were based on average food intake of rats used in the studies. […] After mixing, ethanol was removed in vacuo until dryness.
The regular chow diet for the treatment groups was replaced with the same chow diet containing the treatment substance.
For the EAG model, preparation and immunization of the optic nerve antigen (ONA = bovine optic nerve homogenate) was carried out as previously described ([Laspas et al., 2011]; [Joachim et al., 2013]). Rats received an intraperitoneal injection with 8 mg/ml ONA. The antigen was mixed with incomplete Freund’s adjuvant (500 µl) plus 3 µg pertussis toxin (both Sigma Aldrich, St. Louis, MO, United States). The animals of the control group were injected with NaCl in Freund’s adjuvant and pertussis toxin. Rats were sacrificed 28 days after immunization.
Aqueous humor and serum were collected at the end of the EAG study. IgG levels were measured in serum and aqueous humor samples from the EAG study (both: 6-7 samples/group) using a sandwich enzyme-linked immunosorbent assay (ELISA) kit (eBioscience, Frankfurt, Germany) according to the manufacturer’s instructions. In brief, samples of aqueous humor from both groups were prediluted 1,000- or 2,000-fold in assay buffer, serum samples were diluted 100,000- or 200,000-fold in assay buffer. 75 µl of assay buffer were inserted into each sample well. 25 µl of the prediluted sample were added to the appropriate wells. All samples were incubated, and the absorbance was read at 405 nm using a microplate reader (AESKU.Reader with Gen5 ELISA Software, AESKU.DIAGNOSTICS, Wendelsheim, Germany) ([Reinehr et al., 2018]; [Tsai et al., 2018]).
The IOP was measured in both eyes of each animal in the EAG study with a rebound tonometer (Tonolab; iCare, Oy, Finland) 1 week before as well as 1, 2, and 3 weeks after immunization (n = 5–6 animals/group). The tonometer was held horizontally in front of the animal’s eye ([Pease et al., 2006]). 10 measurements per eye were recorded. From these values, the mean value was calculated ([Reinehr et al., 2019a]).
After explantation, eyes and optic nerves were fixed in 4% paraformaldehyde for 60 min (eyes) or 120 min (optic nerves) and then treated with 30% sucrose overnight. Afterwards, the retinas and optic nerves were embedded in NEG-50 Tissue-Tek medium (Thermo Fisher, Waltham, MA, United States). Cryo-cross sections of the eyes (10 µm) or longitudinal sections of the optic nerves (4 µm) were cut on a microtome (Thermo Fisher), mounted on Histobond Superfrost^+ slides (Thermo Fisher) and fixed in ice cold acetone for 10 min.
Longitudinal optic nerve sections (EAG: 5-6 nerves/group, I/R 14 days: 6-7 nerves/group) were stained with H&E and luxol fast blue (LFB). Of each staining, three areas per optic nerve section were documented with a microscope equipped with a CCD camera (Axio Imager M1; Zeiss) as previously described ([Palmhof et al., 2019]). One photo was taken of the proximal part, one of the middle and one of the distal part, right in front of the chiasma.
Cell infiltration in optic nerve sections stained with H&E was evaluated by using a scoring system ranging from 0 to 4 by a masked observer: 0 = no infiltration; 1 = mild cellular infiltration of the optic nerve or optic nerve sheath; 2 = moderate infiltration; 3 = severe infiltration; and 4 = massive infiltration of the optic nerve parenchyma and nodule infiltration ([Shindler et al., 2006]; [Horstmann et al., 2016]; [Renner et al., 2017]). The average score for each optic nerve was used for statistical analysis.
The grade of demyelination was monitored in optic nerve sections stained with LFB. Therefore, staining was scored from 0 to 2 and categorized as follows: 0 = no demyelination; 0.5 = mild demyelination; 1 = moderate demyelination; 1.5 = advanced demyelination; and 2 = severe demyelination up to dissolution of the tissue.

[7] = molecular target: T4, Acetylcholinesterase (Homo sapiens, UniProt P22303); experiment: Off-target screen Acetylcholinesterase; assay type: biochemical; settings: 10 µM; single point, duplicates
T4 construct: purchased Eurofins CEREP SA
T4 sequence (P22303 32-614): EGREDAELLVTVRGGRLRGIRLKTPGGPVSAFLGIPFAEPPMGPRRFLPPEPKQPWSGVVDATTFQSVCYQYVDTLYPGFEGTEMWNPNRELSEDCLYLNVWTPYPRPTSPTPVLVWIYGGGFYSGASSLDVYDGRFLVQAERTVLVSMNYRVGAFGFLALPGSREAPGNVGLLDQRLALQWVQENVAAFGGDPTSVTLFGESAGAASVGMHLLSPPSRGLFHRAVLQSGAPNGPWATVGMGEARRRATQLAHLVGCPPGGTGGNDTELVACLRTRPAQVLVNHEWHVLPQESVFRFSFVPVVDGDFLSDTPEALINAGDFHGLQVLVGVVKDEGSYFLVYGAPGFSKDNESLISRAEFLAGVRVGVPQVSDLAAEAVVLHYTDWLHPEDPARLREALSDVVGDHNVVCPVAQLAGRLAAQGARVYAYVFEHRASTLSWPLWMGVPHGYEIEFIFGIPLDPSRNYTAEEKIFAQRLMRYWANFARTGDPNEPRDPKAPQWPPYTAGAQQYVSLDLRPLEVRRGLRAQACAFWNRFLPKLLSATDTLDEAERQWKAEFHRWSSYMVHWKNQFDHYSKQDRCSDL

[8] = system: Sodium channel (site 2); experiment: Off-target screen Sodium channel (site 2); settings: 10 µM; single point, duplicates
[9] = molecular target: T5, Alpha1A-adrenoreceptor (Homo sapiens, UniProt P35348); experiment: Off-target screen Alpha1A-adrenoreceptor; assay type: binding; settings: 10 µM; single point, duplicates
T5 construct: purchased Eurofins CEREP SA
T5 sequence (P35348 whole entry): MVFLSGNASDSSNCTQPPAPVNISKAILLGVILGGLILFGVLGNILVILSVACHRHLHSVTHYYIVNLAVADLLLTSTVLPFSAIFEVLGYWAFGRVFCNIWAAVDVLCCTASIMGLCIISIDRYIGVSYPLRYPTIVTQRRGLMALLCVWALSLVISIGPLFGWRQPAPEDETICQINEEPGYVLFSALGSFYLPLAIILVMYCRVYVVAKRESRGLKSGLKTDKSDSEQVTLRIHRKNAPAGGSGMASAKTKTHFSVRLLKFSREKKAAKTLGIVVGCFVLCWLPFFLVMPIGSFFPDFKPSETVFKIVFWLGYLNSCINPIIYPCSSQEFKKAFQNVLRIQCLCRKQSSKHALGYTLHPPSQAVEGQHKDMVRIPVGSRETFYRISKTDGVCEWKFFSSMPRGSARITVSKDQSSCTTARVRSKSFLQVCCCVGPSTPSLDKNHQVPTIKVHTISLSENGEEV

[10] = molecular target: T6, MMP-9 (Homo sapiens, UniProt P14780); experiment: Off-target screen MMP-9; assay type: biochemical; settings: 10 µM; single point, duplicates
T6 construct: purchased Eurofins CEREP SA
T6 sequence (P14780 94-707): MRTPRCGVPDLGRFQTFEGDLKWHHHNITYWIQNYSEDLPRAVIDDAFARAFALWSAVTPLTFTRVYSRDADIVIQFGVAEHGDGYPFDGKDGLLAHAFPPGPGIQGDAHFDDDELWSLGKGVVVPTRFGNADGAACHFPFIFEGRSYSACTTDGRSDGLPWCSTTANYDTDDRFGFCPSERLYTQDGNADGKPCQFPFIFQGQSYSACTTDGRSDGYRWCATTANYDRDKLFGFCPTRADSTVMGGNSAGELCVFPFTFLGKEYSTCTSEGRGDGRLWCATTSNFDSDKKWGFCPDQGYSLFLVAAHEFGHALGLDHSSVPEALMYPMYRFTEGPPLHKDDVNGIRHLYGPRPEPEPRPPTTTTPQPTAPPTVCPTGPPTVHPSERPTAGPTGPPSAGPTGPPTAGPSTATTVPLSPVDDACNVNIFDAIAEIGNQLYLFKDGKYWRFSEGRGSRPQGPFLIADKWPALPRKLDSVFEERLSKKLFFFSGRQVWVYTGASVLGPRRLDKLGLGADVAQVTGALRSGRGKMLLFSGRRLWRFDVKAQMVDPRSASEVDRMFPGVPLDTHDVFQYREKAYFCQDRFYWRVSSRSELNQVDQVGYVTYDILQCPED

[11] = system: PCP receptor; experiment: Off-target screen PCP receptor; settings: 10 µM; single point, duplicates

T1 sequence (P03956 100-469): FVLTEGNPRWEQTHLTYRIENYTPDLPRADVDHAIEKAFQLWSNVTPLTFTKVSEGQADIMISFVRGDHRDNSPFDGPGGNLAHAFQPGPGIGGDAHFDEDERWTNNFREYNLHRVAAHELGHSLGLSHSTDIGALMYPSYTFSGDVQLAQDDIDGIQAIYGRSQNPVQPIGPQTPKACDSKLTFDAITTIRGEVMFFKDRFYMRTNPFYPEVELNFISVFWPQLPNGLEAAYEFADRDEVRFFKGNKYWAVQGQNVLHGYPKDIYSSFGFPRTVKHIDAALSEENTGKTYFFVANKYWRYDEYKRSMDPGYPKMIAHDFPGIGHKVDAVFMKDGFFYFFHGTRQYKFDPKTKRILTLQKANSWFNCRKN

For `O=C(OCc1ccc(OC(F)(F)F)cc1)N1C[C@@H]2CN(C(=O)c3ccc4[nH]nnc4c3)C[C@H]2C1` [Compound 13, (3aS,6aS)-5-(1H-Benzotriazole-5-carbonyl)-hexahydro-pyrrolo[3,4-c]pyrrole-2-carboxylic acid 4-trifluoromethoxy-benzyl ester], which “MMP-1 (h) [% inhib]” value [1] is on record?
Its value is -9 % inhib.

What about the “PPARγ (h), agonist mode [% pos ctrl]” value [2] of the same compound?
The value was 0 % pos ctrl.

And the GSH adducts [3]?
Its GSH adducts is “Neg”.

And the solubility [4]?
Its solubility is 0.028 mg/mL (≈ 58.9 µM).

What about the “S1P2 (h), antago. mode [% inhib]” value [5] of the same compound?
The value was 45 % inhib.

What about the IOP ([6]; 1 week after immunization, ONA 10.44 ± 0.62, control 11.26 ± 0.54) of the same compound?
Its IOP is 10.54 ± 0.40 mmHg.

What about the IOP ([6]; 1 week before immunization, ONA 10.34 ± 0.67, control 10.36 ± 1.03) of the same compound?
Its IOP is 10.91 ± 0.50 mmHg.

And the IOP ([6]; 2 weeks after immunization, ONA 10.74 ± 0.55, control 11.36 ± 0.52)?
Its IOP is 10.85 ± 0.42 mmHg.

What about the IOP ([6]; 3 weeks after immunization, ONA 10.77 ± 0.77, control 11.47 ± 0.62) of the same compound?
The IOP was 10.69 ± 0.60 mmHg.

And the “ED1+ and Iba1+ active microglia, optic nerve” value ([6]; 28 days, ONA 0.27 ± 0.24, control 0.06 ± 0.11)?
Its value is 0.22 ± 0.10 cells/image.

What about the “Iba1+ microglia, optic nerve” value ([6]; 28 days, ONA 3.14 ± 0.94, control 1.28 ± 0.15) of the same compound?
The value was 2.96 ± 0.92 cells/image.

And the “ED1+ and Iba1+ microglia, retina” value ([6]; 28 days, ONA 7.70 ± 6.27, control 1.52 ± 1.28)?
The value was 5.08 ± 1.86 cells/mm.

What about the “GFAP area, retina” value ([6]; 28 days, ONA 13.55 ± 3.42, control 9.72 ± 0.84) of the same compound?
Its value is 10.30 ± 2.29 area [%]/section.

What about the “Iba1+ microglia cell count, retina” value ([6]; 28 days, ONA 22.06 ± 7.81, control 13.67 ± 3.04) of the same compound?
The value was 19.76 ± 2.82 cells/mm.

What about the “Brn-3a+ RGC number, retina” value ([6]; 28 days, ONA 29.47 ± 6.20, control 58.11 ± 4.22, p = 0.032 vs ONA) of the same compound?
The value was 38.59 ± 4.33 cells/mm.

What about the “Optic nerve LFB score” value ([6]; 28 days, score 0-2, ONA 0.58 ± 0.20, control 0.31 ± 0.13) of the same compound?
Its value is 0.77 ± 0.66.

What about the “GFAP score, optic nerve” value ([6]; 28 days, score 0-2, ONA 0.81 ± 0.17, control 0.71 ± 0.26) of the same compound?
The value was 1.00 ± 0.29.

And the “Optic nerve SMI-32 score” value ([6]; 28 days, score 0-2, ONA 0.91 ± 0.08, control 0.58 ± 0.14)?
Its value is 0.75 ± 0.19.

What about the “Optic nerve H&E score” value ([6]; 28 days, score 0-4, ONA 1.22 ± 0.43, control 0.80 ± 0.51) of the same compound?
Its value is 1.27 ± 0.86.

And the “Serum IgG level” value ([6]; end of EAG study, ONA 15.78 ± 5.00, control 8.31 ± 5.76)?
Its value is 12.30 ± 2.70 mg/mL.

What about the “Aqueous humor IgG level” value ([6]; end of EAG study, ONA 272.24 ± 98.17, control 62.31 ± 19.91, p = 0.025 vs ONA) of the same compound?
The value was 167.26 ± 34.50 µg/mL.

What about the “Acetylcholinesterase (h) [% inhib]” value [7] of the same compound?
Its value is -23 % inhib.

What about the “Sodium channel (site 2) (r) [% inhib]” value [8] of the same compound?
The value was 49 % inhib.

What about the “Alpha1A-adrenoreceptor (h) [% inhib]” value [9] of the same compound?
Its value is 6 % inhib.

And the “MMP-9 (h) [% inhib]” value [10]?
The value was -22 % inhib.

And the “PCP receptor (r) [% inhib]” value [11]?
Its value is -16 % inhib.
